Data published in patent US10294234B2, “HIV inhibitor compounds” (priority 2017, dated 2019).
Like-named read-outs stand apart in the source and are kept apart here.

Columns and labels:
[1] = system: HIV-1 (IIIB) in MT-4 cells; assay: MT-4 HIV assay; format: cell-based; settings: Human immunodeficiency virus 1, MT4, 120 h
Summary of the method: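 Antiviral activity was read by Cell Titer Glo after a 5-day, 37 °C culture of MT-4 cells pre-infected with a 1:250 dilution of HIV-1 (IIIB). Compounds were tested as threefold dilution series in complete RPMI. Controls were no drug, mock infection and 5 uM AZT.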

[2] = Summary of the method: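 Each compound (1 uM) is incubated in duplicate with 0.5 mg/mL liver microsomal protein from dog, rat or human plus NADPH-regenerating system. Samples taken at 2, 12, 25, 45 and 65 minutes are deproteinised and quantified by LC/MS/MS. Half-life gives Clint.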
in vivo = settings: rat, in vivo; for Vd / RAT PO F: male, SD; for Vd / RAT IV CL / RAT IV T1/2: iv; for RAT PO F: 2.5 mg/kg
Method: Each dosing group consisted of 3 male naïve SD Rats. At dosing, the animals weighed between 0.27 to 0.32 kg. The animals were fasted overnight prior to dose administration. The test article was administered by intravenous infusion over 30 min. The rate of infusion was adjusted according to the body weight of each animal to deliver a dose of 0.5 or 1.0 mg/kg. For the oral dosing group, the test article was administered to animals by oral gavage administration. Serial venous blood samples (approximately 0.30 mL each) were taken at predose and 0.25, 0.48, 0.58, 0.75, 1.5, 3, 6, 8, 12 and 24 hours post dose for the IV dosing group animals. Blood samples were taken at predose, 0.25, 0.50, 1, 2, 4, 6, 8, 12 and 24 hours post dose for the oral group animals. The blood samples were collected into Vacutainer™ tubes containing EDTA-K2 as the anti-coagulant and were immediately placed on wet ice pending centrifugation for plasma. An LC/MS/MS method was used to measure the concentration of test compound in plasma. Non-compartmental pharmacokinetic analysis was performed on the plasma concentration-time data.

[3] = HIV-1 (IIIB), MT-4 cells, 5 days, Cell Titer Glo, read-out: EC50
[4] = human liver microsomes 0.5 mg/mL, 1 uM compound, NADPH
[5] = rat liver microsomes 0.5 mg/mL, 1 uM compound, NADPH

SMILES	EC50 [1, 3]	Human Pred Cl. ([2]; human, microsomes)	Rat. Pred. Cl. ([2]; rat, microsomes)	Vd (in vivo)	RAT PO F (in vivo)	RAT IV CL (in vivo)	RAT IV T1/2 (in vivo)	EC50 [1]	Human Pred Cl. [2, 4]	Rat. Pred. Cl. [2, 5]
COC(=O)N[C@H](C(=O)N[C@@H](Cc1ccc(C#Cc2ccc(N3CC4CCC(C3)N4C3COC3)nc2)cc1)[C@@H](O)CN(Cc1c(F)cc(-c2cn(C(F)F)cn2)cc1F)NC(=O)[C@@H](NC(=O)OC)C(C)(C)C(F)(F)F)C(C)(C)C(F)(F)F [Example 79, Methyl ((5S,8S,9S,14S)-11-(4-(1-(difluoromethyl)-1H-imidazol-4-yl)-2,6-difluorobenzyl)-16,16,16-trifluoro-9-hydroxy-15,15-dimethyl-8-(4-((6-(8-(oxetan-3-yl)-3,8-diazabicyclo[3.2.1]octan-3-yl)pyridin-3-yl)ethynyl)benzyl)-3,6,13-trioxo-5-(1,1,1-trifluoro-2-methylpropan-2-yl)-2-oxa-4,7,11,12-tetraazahexadecan-14-yl)carbamate]	3.53 nM	<0.11 L/H/kg	<0.18 L/H/kg	4.07 L/kg	13.1%	12.8 mL/min/kg	5.13 h	–	–	–
COC(=O)N[C@H](C(=O)N[C@@H](Cc1ccc(C#Cc2cnc(N3CC4CCC(C3)N4C3COC3)nc2)cc1)[C@@H](O)CN(Cc1c(F)cc(-c2cnn(C(F)F)c2)cc1F)NC(=O)[C@@H](NC(=O)OC)C(C)(C)C(F)(F)F)C(C)(C)C(F)(F)F [Example 61, Methyl ((5S,8S,9S,14S)-11-(4-(1-(difluoromethyl)-1H-pyrazol-4-yl)-2,6-difluorobenzyl)-16,16,16-trifluoro-9-hydroxy-15,15-dimethyl-8-(4-((2-(8-(oxetan-3-yl)-3,8-diazabicyclo[3.2.1]octan-3-yl)pyrimidin-5-yl)ethynyl)benzyl)-3,6,13-trioxo-5-(1,1,1-trifluoro-2-methylpropan-2-yl)-2-oxa-4,7,11,12-tetraazahexadecan-14-yl)carbamate]	4.11 nM	<0.11 L/H/kg	<0.18 L/H/kg	6.5 L/kg	18.5%	7.17 mL/min/kg	12.9 h	–	–	–
COC(=O)N[C@H](C(=O)N[C@@H](Cc1ccc(C#Cc2ccc(N3CC4CCC(C3)N4C3COC3)nc2)cc1)[C@@H](O)CN(Cc1c(F)cc(-c2cc3n(n2)CCOC3)cc1F)NC(=O)[C@@H](NC(=O)OC)C(C)(C)C(F)(F)F)C(C)(C)C(F)(F)F [Example 57, Methyl ((5S,8S,9S,14S)-11-(4-(6,7-dihydro-4H-pyrazolo[5,1-c][1,4]oxazin-2-yl)-2,6-difluorobenzyl)-16,16,16-trifluoro-9-hydroxy-15,15-dimethyl-8-(4-((6-(8-(oxetan-3-yl)-3,8-diazabicyclo[3.2.1]octan-3-yl)pyridin-3-yl)ethynyl)benzyl)-3,6,13-trioxo-5-(1,1,1-trifluoro-2-methylpropan-2-yl)-2-oxa-4,7,11,12-tetraazahexadecan-14-yl)carbamate]	2.91 nM	<0.11 L/H/kg	<0.18 L/H/kg	2.45 L/kg	23.2%	6 mL/min/kg	6.28 h	–	–	–
COC(=O)N[C@H](C(=O)N[C@@H](Cc1ccc(C#Cc2cnc(N3CCN(C4COC4)CC3)nc2)cc1)[C@@H](O)CN(Cc1c(F)cc(-c2ccn(C(F)F)n2)cc1F)NC(=O)[C@@H](NC(=O)OC)C(C)(C)C(F)(F)F)C(C)(C)C(F)(F)F [Example 87, methyl ((5S,8S,9S,14S)-11-(4-(1-(difluoromethyl)-1H-pyrazol-3-yl)-2,6-difluorobenzyl)-16,16,16-trifluoro-9-hydroxy-15,15-dimethyl-8-(4-((2-(4-(oxetan-3-yl)piperazin-1-yl)pyrimidin-5-yl)ethynyl)benzyl)-3,6,13-trioxo-5-(1,1,1-trifluoro-2-methylpropan-2-yl)-2-oxa-4,7,11,12-tetraazahexadecan-14-yl)carbamate]	–	–	–	–	–	–	–	4.26 nM	0.13 L/H/kg	0.23 L/H/kg
COC(=O)N[C@H](C(=O)N[C@@H](Cc1ccc(C#Cc2ccc(N3CC4CCC(C3)N4C3COC3)nc2)cc1)[C@@H](O)CN(Cc1c(F)cc(-c2ccn(C(F)F)n2)cc1F)NC(=O)[C@@H](NC(=O)OC1COC1)C(C)(C)C)C(C)(C)C(F)(F)F [Example 184, methyl ((2S)-1-(((2S,3S)-4-(1-(4-(1-(difluoromethyl)-1H-pyrazol-3-yl)-2,6-difluorobenzyl)-2-((S)-3,3-dimethyl-2-(((oxetan-3-yloxy)carbonyl)amino)butanoyl)hydrazinyl)-3-hydroxy-1-(4-((6-(8-(oxetan-3-yl)-3,8-diazabicyclo[3.2.1]octan-3-yl)pyridin-3-yl)ethynyl)phenyl)butan-2-yl)amino)-4,4,4-trifluoro-3,3-dimethyl-1-oxobutan-2-yl)carbamate]	3.66 nM	<0.11 L/H/kg	<0.18 L/H/kg	–	–	–	–	–	–	–
COC(=O)N[C@H](C(=O)NN(Cc1c(F)cc(-c2ccn(CC(F)F)n2)cc1F)C[C@H](O)[C@H](Cc1ccc(C#Cc2cnc(N3CC4CCC(C3)N4C3COC3)nc2)cc1)NC(=O)[C@@H](NC(=O)OC)C(C)(C)C(F)(F)F)C(C)(C)C [Example 7, methyl ((5S,8S,9S,14S)-11-(4-(1-(2,2-difluoroethyl)-1H-pyrazol-3-yl)-2,6-difluorobenzyl)-9-hydroxy-15,15-dimethyl-8-(4-((2-(8-(oxetan-3-yl)-3,8-diazabicyclo[3.2.1]octan-3-yl)pyrimidin-5-yl)ethynyl)benzyl)-3,6,13-trioxo-5-(1,1,1-trifluoro-2-methylpropan-2-yl)-2-oxa-4,7,11,12-tetraazahexadecan-14-yl)carbamate]	3.61 nM	<0.11 L/H/kg	0.21 L/H/kg	–	–	–	–	–	–	–
COC(=O)N[C@H](C(=O)N[C@@H](Cc1ccc(C#Cc2ccc(N3CCN(C4CCOC4)CC3)nc2)cc1)[C@@H](O)CN(Cc1c(F)cc(-c2cnn(C(F)F)c2)cc1F)NC(=O)[C@@H](NC(=O)OC)C(C)(C)C(F)(F)F)C(C)(C)C(F)(F)F (stereo partly drawn) [Example 114, Methyl ((5S,8S,9S,14S)-11-(4-(1-(difluoromethyl)-1H-pyrazol-4-yl)-2,6-difluorobenzyl)-16,16,16-trifluoro-9-hydroxy-15,15-dimethyl-3,6,13-trioxo-8-(4-((6-(4-(tetrahydrofuran-3-yl)piperazin-1-yl)pyridin-3-yl)ethynyl)benzyl)-5-(1,1,1-trifluoro-2-methylpropan-2-yl)-2-oxa-4,7,11,12-tetraazahexadecan-14-yl)carbamate]	5.1 nM	–	–	–	–	–	–	–	<0.11 L/H/kg	0.28 L/H/kg
COC(=O)N[C@H](C(=O)N[C@@H](Cc1ccc(C#Cc2cnc(N3CCNC(=O)C3)nc2)cc1)[C@@H](O)CN(Cc1c(F)cc(-c2ccn(C(F)F)n2)cc1F)NC(=O)[C@@H](NC(=O)OC)C(C)(C)C(F)(F)F)C(C)(C)C(F)(F)F [Example 123, Methyl ((5S,8S,9S,14S)-11-(4-(1-(difluoromethyl)-1H-pyrazol-3-yl)-2,6-difluorobenzyl)-16,16,16-trifluoro-9-hydroxy-15,15-dimethyl-3,6,3-trioxo-8-(4-((2 (3-oxopiperazin-1-yl)pyrimidin-5-yl)ethynyl)benzyl)-5-(1,1,1-trifluoro-2-methylpropan-2-yl)-2-oxa-4,7,11,12-tetraazahexadecan-14-yl)carbamate]	–	–	–	–	–	–	–	4.16 nM	<0.11 L/H/kg	<0.18 L/H/kg
COC(=O)N[C@H](C(=O)NN(Cc1c(F)cc(-c2ccn(C(F)F)n2)cc1F)C[C@H](O)[C@H](Cc1ccc(C#Cc2ccc(N3CC4CCC(C3)N4S(C)(=O)=O)nc2)cc1)NC(=O)[C@@H](NC(=O)OC)C(C)(C)C(F)(F)F)C(C)(C)C [Example 72, Methyl ((5S,8S,9S,14S)-11-(4-(1-(difluoromethyl)-1H-pyrazol-3-yl)-2,6-difluorobenzyl)-9-hydroxy-15,15-dimethyl-8-(4-((6-(8-(methylsulfonyl)-3,8-diazabicyclo[3.2.1]octan-3-yl)pyridin-3-yl)ethynyl)benzyl)-3,6,13-trioxo-5-(1,1,1-trifluoro-2-methylpropan-2-yl)-2-oxa-4,7,11,12-tetraazahexadecan-14-yl)carbamate]	5.19 nM	0.14 L/H/kg	<0.18 L/H/kg	–	–	–	–	–	–	–
COC(=O)N[C@H](C(=O)N[C@@H](Cc1ccc(C#Cc2ccc(N3CC4CC(C3)N4C3COC3)nc2)cc1)[C@@H](O)CN(Cc1c(F)cc(-c2ccccn2)cc1F)NC(=O)[C@@H](NC(=O)OC)C(C)(C)C(F)(F)F)C(C)(C)C(F)(F)F [Example 175, Methyl ((5S,8S,9S,14S)-11-(2,6-difluoro-4-(pyridin-2-yl)benzyl)-16,16,16-trifluoro-9-hydroxy-15,15-dimethyl-8-(4-((6-(6-(oxetan-3-yl)-3,6-diazabicyclo[3.1.1]heptan-3-yl)pyridin-3-yl)ethynyl)benzyl)-3,6,13-trioxo-5-(1,1,1-trifluoro-2-methylpropan-2-yl)-2-oxa-4,7,11,12-tetraazahexadecan-14-yl)carbamate]	2.17 nM	0.67 L/H/kg	0.7 L/H/kg	–	–	–	–	–	–	–
